Several values for one entry are separate records, joined by “and”; a condition that tells them apart may be missing. Identical values can stand only once.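 Where inhibition never reached the appropriate level, the endpoint shown equals the highest concentration tested. Otherwise, values were interpolated linearly from a five-concentration, 48-hour dose response in 96-well plates. At the GI50, growth is halved. At the TGI there is no net growth.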
Key:
Experiment in all cases: DTP human tumour cell line panel, 48 h; in the data active = GI50 below about 0.43 µM; inactive = the rest
NCI-H226 lung = tested on: NCI-H226 lung
NCI-H23 lung = tested on: NCI-H23 lung
NCI-H460 lung = tested on: NCI-H460 lung
NCI-H522 lung = tested on: NCI-H522 lung
NCI/ADR-RES ovarian = tested on: NCI/ADR-RES ovarian
OVCAR-3 ovarian = tested on: OVCAR-3 ovarian
OVCAR-4 ovarian = tested on: OVCAR-4 ovarian
OVCAR-5 ovarian = tested on: OVCAR-5 ovarian
OVCAR-8 ovarian = tested on: OVCAR-8 ovarian
PC-3 prostate = tested on: PC-3 prostate
RPMI-8226 leukemia = tested on: RPMI-8226 leukemia
RXF 393 renal = tested on: RXF 393 renal
SF-268 CNS = tested on: SF-268 CNS
SF-295 CNS = tested on: SF-295 CNS
SF-539 CNS = tested on: SF-539 CNS
SK-MEL-2 melanoma = tested on: SK-MEL-2 melanoma
SK-MEL-28 melanoma = tested on: SK-MEL-28 melanoma
SK-MEL-5 melanoma = tested on: SK-MEL-5 melanoma
SK-OV-3 ovarian = tested on: SK-OV-3 ovarian
SN12C renal = tested on: SN12C renal
SNB-19 CNS = tested on: SNB-19 CNS
SNB-75 CNS = tested on: SNB-75 CNS
SR leukemia = tested on: SR leukemia
SW-620 colon = tested on: SW-620 colon
T-47D breast = tested on: T-47D breast
TK-10 renal = tested on: TK-10 renal
U251 CNS = tested on: U251 CNS
UACC-257 melanoma = tested on: UACC-257 melanoma
UACC-62 melanoma = tested on: UACC-62 melanoma
UO-31 renal = tested on: UO-31 renal

CCC[C@H](N[C@H]1CCc2cc(F)cc(F)c2C1)C(=O)Nc1cn(C(C)(C)CNCC(C)(C)C)cn1
30 µM and 27.7 µM: TGI (UO-31 renal)
> 100 µM and 69.6 µM: TGI (NCI-H522 lung)
47.3 µM and > 100 µM: TGI (SF-539 CNS)
inactive: GI50 (NCI-H23 lung) 24.1 µM and 22.4 µM | GI50 (NCI-H460 lung) 25.3 µM and 21.6 µM | GI50 (NCI-H522 lung) 23.9 µM and 13.4 µM | GI50 (NCI/ADR-RES ovarian) 17.2 µM and 20.6 µM | GI50 (OVCAR-3 ovarian) 19.9 µM and 16.6 µM | GI50 (OVCAR-4 ovarian) 23.6 µM and 16.1 µM | GI50 (OVCAR-5 ovarian) 27 µM and 22.6 µM | GI50 (OVCAR-8 ovarian) 31.7 µM and 26 µM | GI50 (PC-3 prostate) 10.9 µM and 12.4 µM | GI50 (RPMI-8226 leukemia) 9.57 µM and 11 µM | GI50 (SF-268 CNS) 21.8 µM and 16.5 µM | GI50 (SF-295 CNS) 23.6 µM and 18.5 µM | GI50 (SF-539 CNS) 19 µM and 27.8 µM | GI50 (SK-MEL-2 melanoma) 16.8 µM and 15.1 µM | GI50 (SK-MEL-28 melanoma) 19 µM and 18 µM | GI50 (SK-MEL-5 melanoma) 15.2 µM and 13 µM | GI50 (SK-OV-3 ovarian) 37.2 µM and 40.3 µM | GI50 (SN12C renal) 28.6 µM and 17.5 µM | GI50 (SNB-19 CNS) 35.2 µM and 29.7 µM | GI50 (SNB-75 CNS) 18.2 µM and 13.8 µM | GI50 (SR leukemia) 19.3 µM and 14 µM | GI50 (SW-620 colon) 23.7 µM and 23.3 µM | GI50 (T-47D breast) 9.83 µM and 14.2 µM | GI50 (TK-10 renal) 25.1 µM and 28.9 µM | GI50 (U251 CNS) 17.6 µM and 19.3 µM | GI50 (UACC-257 melanoma) 13.7 µM and 12.9 µM | GI50 (UACC-62 melanoma) 16.8 µM | GI50 (UO-31 renal) 5.72 µM and 4.1 µM
> 100 µM and 92.9 µM: TGI (NCI-H226 lung)
> 100 µM: TGI (NCI-H23 lung) | TGI (NCI-H460 lung) | TGI (NCI/ADR-RES ovarian) | TGI (OVCAR-4 ovarian) | TGI (OVCAR-5 ovarian) | TGI (OVCAR-8 ovarian) | TGI (PC-3 prostate) | TGI (SF-268 CNS) | TGI (SF-295 CNS) | TGI (SK-OV-3 ovarian) | TGI (SN12C renal) | TGI (SNB-19 CNS) | TGI (SNB-75 CNS) | TGI (SW-620 colon) | TGI (T-47D breast) | TGI (TK-10 renal) | TGI (U251 CNS)
52.9 µM and 54.8 µM: TGI (SK-MEL-28 melanoma)
29.6 µM and 26.2 µM: TGI (SK-MEL-5 melanoma)
48.8 µM and 69 µM: TGI (RPMI-8226 leukemia)
> 100 µM and 91.1 µM: TGI (SR leukemia)
39.9 µM and 13.4 µM: TGI (RXF 393 renal)
61.9 µM and 40.4 µM: TGI (UACC-257 melanoma)
45.8 µM: TGI (UACC-62 melanoma)
> 100 µM and 77.6 µM: TGI (OVCAR-3 ovarian)
42 µM and 37.2 µM: TGI (SK-MEL-2 melanoma)

Source: PubChem BioAssay (NCI)
